Earlier results on 2 molecules are cited in patent US20080292666A1, “Preparation for Preventing or Treating Calcium Deficiency Conditions In Mammals” (priority 2005, published 2008).

The conditions of data set [1]: for effect of oral drenches on blood Ca-concentrations: aqueous solutions or slurries, cows.
The test system of data set [2] is parturient paresis in dairy cows. As to conditions: 120 g calcium as calcium propionate cylinders vs 216 g as oily calcium chloride solution.
The conditions of data set [3]: 75 g of calcium as paste, oral.

`[Ca+2].[Cl-].[Cl-]` [calcium chloride]: the “rise of plasma Ca-concentrations after oral CaCl2 compared with i.v.” value in data set [1] (50 g of Ca as CaCl2) is “raised plasma Ca-concentrations to the same extent as 4° g. of Ca as CaCl2 given i.v”. The “effect of oral drenches on blood Ca-concentrations” value in data set [1] is reported as “increased blood Ca-concentrations more quickly than did Ca-propionate”. For the same molecule, the “total amount administered in 24 h not to be exceeded to avoid severe metabolic acidosis” value in data set [1] (oral, 24 h (120 g of Ca)) was not above 288 g.
In the case of `CCC(=O)[O-].CCC(=O)[O-].[Ca+2]` [calcium propionate], in data set [1], the “effect of oral drenches on blood Ca-concentrations” value is recorded as “effects lasted longer”. Besides, the “effectiveness in the prevention of milk fever” value in data set [2] was “as effective in the prevention of milk fever as was treatment with calcium chloride”. Moreover, in data set [3], the “persistence of the increase in plasma calcium” value is recorded as “sustained for a longer period” and the “rapidity of plasma calcium increase” value is “did not increase plasma calcium as rapidly as 75° g. calcium as CaCl2”.
